This assay concerns the target T1, human sodium-dependent glucose transporter 2 (SGLT2, SLC5A2) (Homo sapiens, UniProt P31639).
T1 construct: Bases 21 to 2039 correspond to the complete coding region of human SGLT2; expressed in transfected cells
T1 sequence (P31639 1-672): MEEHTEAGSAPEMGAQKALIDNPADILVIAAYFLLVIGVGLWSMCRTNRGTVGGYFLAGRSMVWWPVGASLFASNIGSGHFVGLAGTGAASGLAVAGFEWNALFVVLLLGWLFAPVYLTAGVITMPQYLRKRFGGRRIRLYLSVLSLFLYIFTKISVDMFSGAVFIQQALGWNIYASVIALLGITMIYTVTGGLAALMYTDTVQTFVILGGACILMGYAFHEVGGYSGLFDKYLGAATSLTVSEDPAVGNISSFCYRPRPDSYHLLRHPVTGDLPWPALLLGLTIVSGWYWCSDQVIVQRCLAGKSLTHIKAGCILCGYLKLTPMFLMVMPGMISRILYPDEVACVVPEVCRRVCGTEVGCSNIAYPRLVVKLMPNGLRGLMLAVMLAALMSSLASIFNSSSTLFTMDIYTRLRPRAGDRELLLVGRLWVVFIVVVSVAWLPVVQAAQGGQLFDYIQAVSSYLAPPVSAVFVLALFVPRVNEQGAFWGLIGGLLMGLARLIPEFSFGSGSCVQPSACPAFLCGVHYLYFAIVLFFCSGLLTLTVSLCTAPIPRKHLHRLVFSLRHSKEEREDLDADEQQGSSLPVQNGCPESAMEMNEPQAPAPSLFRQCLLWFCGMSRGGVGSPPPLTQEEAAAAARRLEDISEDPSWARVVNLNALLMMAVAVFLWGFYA
Description: Inhibition of the transport activity of human SGLT2 in vitro (α-MDG uptake in CHO-TRex-hSGLT2 cells). The assay is classed as cell-based. The following applies: 50 μM α-MDG, 120 min at 37° C. The source says:
Inhibition of the Transport Activity of the Human Sodium-Dependent Glucose Transporter 2 (SGLT2, SLC5A2) In Vitro
1. Cloning of an Expression Vector for Human SGLT2
The cDNA for human SGLT2 was introduced into the pcDNA4/TO vector (Invitrogen) by means of standard methods of molecular biology as described in Sambrook et al. (Molecular Cloning, A Laboratory Manual, Second Edition). […] Bases 21 to 2039 correspond to the complete coding region of human SGLT2.
2. Production of a Recombinant Cell Line with Inducible Expression of Human SGLT2
The expression vector for human SGLT2 was introduced into CHO-TREx cells (Invitrogen) by means of FuGene6 lipofection (Roche). To select single cell clones, 600 μg/ml of Zeocin (Invitrogen) was added to the cell culture medium (nutrient mixture F-12 (Ham), (Invitrogen) supplemented with 10% fetal calf serum (FBS Gold, PAA), 10 μg/ml Blasticidin S(CN Biosciences), 100 units/ml penicillin, 100 units/ml streptomycin). The functionality of the single cell clones resulting from the selection was tested via their uptake activity for radiolabeled methyl-α-D-glucopyranoside. That cell clone with the highest uptake activity for methyl-α-D-glucopyranoside, referred to hereinafter as CHO-TRex-hSGLT2, was selected for the further experiments and cultured further in the presence of 600 μg/ml Zeocin.
3. Measurement of the Inhibiting Action of Test Substances on the Uptake of methyl-α-D-glucopyranoside (α-MDG)
CHO-TRex-hSGLT2 cells were seeded in cell culture medium in a concentration of 50 000 cells per well in Cytostar-T scintillating 96-well plates (Amersham Biosciences) and cultivated for 24 h. The expression of the recombinant human SGLT2 was induced by adding 1 μg/ml tetrazykline for a further 24 h. For α-MDG uptake experiments, the cells were washed with PBS and then starved at 37° C. in starvation medium (PBS supplemented with 10% fetal calf serum) for 1 hour. After a further washing step with transport assay buffer (140 mM sodium chloride, 2 mm potassium chloride, 1 mm magnesium chloride, 1 mm calcium chloride, 10 mm HEPES/Tris, pH 7.5), the cells were incubated at room temperature either in the absence or presence of test substances of different concentration for 15 min. The test substances were diluted correspondingly in transport assay buffer proceeding from a 10 mm stock solution in dimethyl sulfoxide (40 μl/well). The assay was subsequently started by adding 10 μl/well of a mixture of radiolabeled methyl-α-D-[U-^14C]glucopyranoside (Amersham) and unlabeled methyl-α-D-glucopyranoside (Acros). The final concentration of methyl-α-D-glucopyranoside in the assay was 50 μM. After an incubation time of 120 min at 37° C., the reaction was stopped by adding 50 μl/well of 10 mM methyl-α-D-glucopyranoside in transport assay buffer (4° C.), and the radioactivity taken up into the cells was determined in a MicroBeta Scintillation Microplate Reader (Wallac).
The half-maximum inhibiting action of the test substances (IC50 value) was determined as follows: • 1. Determination of the value for 0% inhibition. This is the measurement in the absence of substance, measured in sodium-containing transport assay buffer. • 2. Determination of the value for 100% inhibition. This is the measurement in the absence of substance, measured in sodium-free transport assay buffer (140 mM choline chloride, 2 mM potassium chloride, 1 mM magnesium chloride, 1 mM calcium chloride, 10 mM HEPES/Tris, pH7.5). • 3. Calculation of the percentage inhibition values of those measurements which were carried out in the presence of different concentrations of test substance. From this, it was then possible to determine that concentration of the test substance which reduces the uptake of the methyl-α-D-glucopyranoside by 50% (IC50 value).

Consider `CCc1ccc(Cc2cccc(C3OC(CO)C(F)C(O)C3O)c2)cc1` (centres unmarked) [Example 4], for which the half-maximal inhibitory concentration (IC50) – broadly, the midpoint of a concentration-inhibition curve – was 153 nM. In other words, the sub-micromolar range.

The compound `CCOC(=O)OCC1OC(c2ccc(OC)c(Cc3ccc(OC)cc3)c2)C(O)C(O)C1(F)F` (centres unmarked) [Example 14] had an IC50 of 1600 nM. For `CCOC(=O)OC1C(O)C(c2ccc(Cl)c(Cc3ccc(OCC)cc3)c2)OC(CO)C1(F)F` (centres unmarked) [Example 19] the value was 165 nM; for `CCOC(=O)OCC1OC(c2ccc(Cl)c(Cc3ccc(OC)cc3)c2)C(O)C(O)C1F` (centres unmarked) [Example 20], 1060 nM. `OCC1OC(c2ccc(Cl)c(Cc3ccc(OCC4CC4)cc3)c2)C(O)C(O)C1(F)F` (centres unmarked) [Example 32]: the half-maximal inhibitory concentration (IC50) worked out at 46 nM. For `CCOC(=O)OC[C@H]1O[C@@H](c2ccc(Cl)c(Cc3ccc(Cl)cc3)c2)[C@H](O)[C@@H](O)C1(F)F` [Example 45] the value was 3000 nM; for `CCc1ccc(Cc2cc(C3OC(CO)C(F)C(O)C3O)ccc2C(F)(F)F)cc1` (centres unmarked) [Example 52], 107 nM; for `CCc1ccc(Cc2cc(C3OC(CO)C(F)(F)C(O)C3O)ccc2C(F)(F)F)cc1` (centres unmarked) [Example 54], 257 nM.
